What was measured:
Experiment in all cases: Carna kinase panel screen
Type in all cases: biochemical
Conditions in all cases: read-out: % Inhibition ± SD
[1] = target: T1, EphA2 (Homo sapiens, UniProt P29317)
T1 construct: purchased Carna Biosciences
Protocol: (§1) IC50 values were determined from a 10-point concentration curve using ATP concentrations approximating Km values. […] The percentage inhibition of each test solution was calculated, which allowed the IC50 value to be determined from concentration versus percentage inhibition curves by fitting to a four parameter logistic curve.

[2] = target: T2, ABL (Homo sapiens, UniProt P00519)
T2 construct: purchased Carna Biosciences
Protocol: as §1

[3] = target: T3, p38d (Homo sapiens, UniProt O15264)
T3 construct: purchased Carna Biosciences
Protocol: as §1

[4] = target: T4, CDK6 (Homo sapiens, UniProt Q00534)
T4 construct: purchased Carna Biosciences
Protocol: as §1

[5] = target: T5, MAPKAPK5 (Homo sapiens, UniProt Q8IW41)
T5 construct: purchased Carna Biosciences
Protocol: as §1

[6] = target: T6, MAP3K1 (Homo sapiens, UniProt Q13233)
T6 construct: purchased Carna Biosciences
Protocol: as §1

[7] = target: T7, PLK4 (Homo sapiens, UniProt O00444)
T7 construct: purchased Carna Biosciences
Protocol: as §1

[8] = target: T8, MST1 (Homo sapiens, UniProt Q13043)
T8 construct: purchased Carna Biosciences
Protocol: as §1

[9] = target: T9, MELK (Homo sapiens, UniProt Q14680)
T9 construct: purchased Carna Biosciences
Protocol: as §1

[10] = target: T10, HGK (Homo sapiens, UniProt O95819)
T10 construct: purchased Carna Biosciences
Protocol: as §1

[11] = target: T11, LYNa (Homo sapiens, UniProt P07948)
T11 construct: purchased Carna Biosciences
Protocol: as §1

[12] = target: T12, FES (Homo sapiens, UniProt P07332)
T12 construct: purchased Carna Biosciences
Protocol: as §1

[13] = target: T13, EphB4 (Homo sapiens, UniProt P54760)
T13 construct: purchased Carna Biosciences
Protocol: as §1

[14] = target: T14, PKD2 (Homo sapiens, UniProt Q9BZL6)
T14 construct: purchased Carna Biosciences
Protocol: as §1

[15] = target: T15, CSK (Homo sapiens, UniProt P41240)
T15 construct: purchased Carna Biosciences
Protocol: as §1

[16] = target: T16, MAP2K7 (Homo sapiens, UniProt O14733)
T16 construct: purchased Carna Biosciences
Protocol: as §1

[17] = target: T17, p38a (Homo sapiens, UniProt Q16539)
T17 construct: purchased Carna Biosciences
Protocol: as §1

[18] = target: T18, RET (Homo sapiens, UniProt P07949)
T18 construct: purchased Carna Biosciences
Protocol: as §1

[19] = target: T19, IKKb (Homo sapiens, UniProt O14920)
T19 construct: purchased Carna Biosciences
Protocol: as §1

[20] = target: T20, EphB3 (Homo sapiens, UniProt P54753)
T20 construct: purchased Carna Biosciences
Protocol: as §1

[21] = target: T21, DYRK2 (Homo sapiens, UniProt Q92630)
T21 construct: purchased Carna Biosciences
Protocol: as §1

[22] = target: T22, MARK2 (Homo sapiens, UniProt Q7KZI7)
T22 construct: purchased Carna Biosciences
Protocol: as §1

[23] = target: T23, CRIK (Homo sapiens, UniProt O14578)
T23 construct: purchased Carna Biosciences
Protocol: as §1

[24] = target: T24, DYRK3 (Homo sapiens, UniProt O43781)
T24 construct: purchased Carna Biosciences
Protocol: as §1

[25] = target: T25, SGK (Homo sapiens, UniProt O00141)
T25 construct: purchased Carna Biosciences
Protocol: as §1

[26] = target: T26, Erk1 (Homo sapiens, UniProt P27361)
T26 construct: purchased Carna Biosciences
Protocol: as §1

[27] = target: T27, PIM2 (Homo sapiens, UniProt Q9P1W9)
T27 construct: purchased Carna Biosciences
Protocol: as §1

[28] = target: T28, NuaK1 (Homo sapiens, UniProt O60285)
T28 construct: purchased Carna Biosciences
Protocol: as §1

[29] = target: T29, EGFR (Homo sapiens, UniProt P00533)
T29 construct: purchased Carna Biosciences
Protocol: as §1

[30] = target: T30, DYRK1B (Homo sapiens, UniProt Q9Y463)
T30 construct: purchased Carna Biosciences
Protocol: as §1

[31] = target: T31, PKR (Homo sapiens, UniProt P19525)
T31 construct: purchased Carna Biosciences
Protocol: as §1

[32] = target: T32, AKT2 (Homo sapiens, UniProt P31751)
T32 construct: purchased Carna Biosciences
Protocol: as §1

[33] = target: T33, PKCz (Homo sapiens, UniProt Q05513)
T33 construct: purchased Carna Biosciences
Protocol: as §1

[34] = target: T34, FRK (Homo sapiens, UniProt P42685)
T34 construct: purchased Carna Biosciences
Protocol: as §1

[35] = target: T35, PDGFRa (Homo sapiens, UniProt P16234)
T35 construct: purchased Carna Biosciences
Protocol: as §1

[36] = target: T36, CaMK1a (Homo sapiens, UniProt Q14012)
T36 construct: purchased Carna Biosciences
Protocol: as §1

[37] = target: T37, TRKA (Homo sapiens, UniProt P04629)
T37 construct: purchased Carna Biosciences
Protocol: as §1

[38] = target: T38, EphA7 (Homo sapiens, UniProt Q15375)
T38 construct: purchased Carna Biosciences
Protocol: as §1

[39] = target: T39, PIM1 (Homo sapiens, UniProt P11309)
T39 construct: purchased Carna Biosciences
Protocol: as §1

[40] = target: T40, PAK2 (Homo sapiens, UniProt Q13177)
T40 construct: purchased Carna Biosciences
Protocol: as §1

[41] = target: T41, MLK3 (Homo sapiens, UniProt Q16584)
T41 construct: purchased Carna Biosciences
Protocol: as §1

[42] = target: T42, PGK (Homo sapiens, UniProt Q13976)
T42 construct: purchased Carna Biosciences
Protocol: as §1

[43] = target: T43, PKN1 (Homo sapiens, UniProt Q16512)
T43 construct: purchased Carna Biosciences
Protocol: as §1

[44] = target: T44, FGFR4 (Homo sapiens, UniProt P22455)
T44 construct: purchased Carna Biosciences
Protocol: as §1

T37 sequence (P04629 33-796): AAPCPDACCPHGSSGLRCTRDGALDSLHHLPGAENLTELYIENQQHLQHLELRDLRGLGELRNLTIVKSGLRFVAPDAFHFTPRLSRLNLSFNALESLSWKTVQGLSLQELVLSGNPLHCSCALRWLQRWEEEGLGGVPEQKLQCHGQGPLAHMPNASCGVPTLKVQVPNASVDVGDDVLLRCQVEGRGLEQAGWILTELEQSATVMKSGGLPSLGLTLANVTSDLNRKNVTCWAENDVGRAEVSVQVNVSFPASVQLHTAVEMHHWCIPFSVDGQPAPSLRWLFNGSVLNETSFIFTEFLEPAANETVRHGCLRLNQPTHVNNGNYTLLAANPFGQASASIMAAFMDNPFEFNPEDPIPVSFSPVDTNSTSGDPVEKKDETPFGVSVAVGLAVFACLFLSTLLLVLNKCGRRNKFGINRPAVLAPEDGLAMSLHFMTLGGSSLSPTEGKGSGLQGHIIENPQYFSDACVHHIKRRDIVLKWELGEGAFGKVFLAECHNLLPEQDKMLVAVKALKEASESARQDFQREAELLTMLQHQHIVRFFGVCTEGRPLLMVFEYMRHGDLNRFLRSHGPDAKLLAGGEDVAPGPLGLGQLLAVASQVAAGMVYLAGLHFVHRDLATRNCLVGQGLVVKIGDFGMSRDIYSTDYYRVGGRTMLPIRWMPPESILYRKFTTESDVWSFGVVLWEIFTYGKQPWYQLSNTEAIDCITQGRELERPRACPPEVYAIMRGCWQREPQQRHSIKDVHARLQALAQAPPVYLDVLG
T35 sequence (P16234 24-1089): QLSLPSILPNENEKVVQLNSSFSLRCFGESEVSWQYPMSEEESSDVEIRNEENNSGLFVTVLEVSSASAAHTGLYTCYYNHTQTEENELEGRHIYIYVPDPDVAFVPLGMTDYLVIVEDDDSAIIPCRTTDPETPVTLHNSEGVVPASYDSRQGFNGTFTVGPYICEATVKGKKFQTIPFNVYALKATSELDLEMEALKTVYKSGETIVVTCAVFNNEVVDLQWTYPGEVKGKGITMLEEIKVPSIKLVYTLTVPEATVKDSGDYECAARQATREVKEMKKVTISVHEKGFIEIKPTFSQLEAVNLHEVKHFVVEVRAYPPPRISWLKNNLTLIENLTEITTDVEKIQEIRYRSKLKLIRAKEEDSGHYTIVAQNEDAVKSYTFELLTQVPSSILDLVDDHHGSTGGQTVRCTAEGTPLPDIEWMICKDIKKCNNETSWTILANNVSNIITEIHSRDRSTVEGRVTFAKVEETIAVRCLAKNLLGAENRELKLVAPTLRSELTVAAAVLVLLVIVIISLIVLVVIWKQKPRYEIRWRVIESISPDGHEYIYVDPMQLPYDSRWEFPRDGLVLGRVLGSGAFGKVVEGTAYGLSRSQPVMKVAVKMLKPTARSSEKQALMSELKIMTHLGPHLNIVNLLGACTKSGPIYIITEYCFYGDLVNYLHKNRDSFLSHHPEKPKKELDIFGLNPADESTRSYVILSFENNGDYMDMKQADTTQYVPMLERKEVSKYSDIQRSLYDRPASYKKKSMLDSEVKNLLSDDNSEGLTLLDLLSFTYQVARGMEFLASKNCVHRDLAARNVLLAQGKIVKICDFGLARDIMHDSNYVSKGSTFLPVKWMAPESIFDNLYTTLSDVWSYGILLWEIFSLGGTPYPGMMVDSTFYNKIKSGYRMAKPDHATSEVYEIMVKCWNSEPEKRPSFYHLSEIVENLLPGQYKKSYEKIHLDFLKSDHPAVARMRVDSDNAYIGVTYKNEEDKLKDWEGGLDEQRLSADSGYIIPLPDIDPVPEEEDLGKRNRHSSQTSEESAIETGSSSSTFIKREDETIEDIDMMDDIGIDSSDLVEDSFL
T32 sequence (P31751 whole entry): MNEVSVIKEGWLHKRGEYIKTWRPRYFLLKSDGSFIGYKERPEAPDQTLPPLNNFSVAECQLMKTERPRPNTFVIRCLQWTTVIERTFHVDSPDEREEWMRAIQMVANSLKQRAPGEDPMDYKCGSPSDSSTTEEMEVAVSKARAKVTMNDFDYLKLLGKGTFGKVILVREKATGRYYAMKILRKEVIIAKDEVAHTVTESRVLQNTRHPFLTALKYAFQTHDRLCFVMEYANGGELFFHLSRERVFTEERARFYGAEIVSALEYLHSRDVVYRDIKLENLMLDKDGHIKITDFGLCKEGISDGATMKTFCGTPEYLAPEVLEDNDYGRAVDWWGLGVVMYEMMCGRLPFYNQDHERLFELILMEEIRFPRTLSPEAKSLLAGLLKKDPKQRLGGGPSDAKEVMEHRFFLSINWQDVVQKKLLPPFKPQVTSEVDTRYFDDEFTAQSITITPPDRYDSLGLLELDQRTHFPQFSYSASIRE
T16 sequence (O14733 whole entry): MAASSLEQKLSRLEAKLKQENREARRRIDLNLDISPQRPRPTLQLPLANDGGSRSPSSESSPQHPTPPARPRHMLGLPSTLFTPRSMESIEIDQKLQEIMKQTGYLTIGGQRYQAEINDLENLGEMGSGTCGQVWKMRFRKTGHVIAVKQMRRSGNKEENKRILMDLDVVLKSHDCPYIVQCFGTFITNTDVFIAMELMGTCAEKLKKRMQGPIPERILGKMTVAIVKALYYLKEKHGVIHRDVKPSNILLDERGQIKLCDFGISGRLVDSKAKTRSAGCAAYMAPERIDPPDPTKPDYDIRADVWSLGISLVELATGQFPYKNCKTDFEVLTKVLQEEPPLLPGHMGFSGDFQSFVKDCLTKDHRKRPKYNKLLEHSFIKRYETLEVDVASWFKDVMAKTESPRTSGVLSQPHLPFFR
T5 sequence (Q8IW41 whole entry): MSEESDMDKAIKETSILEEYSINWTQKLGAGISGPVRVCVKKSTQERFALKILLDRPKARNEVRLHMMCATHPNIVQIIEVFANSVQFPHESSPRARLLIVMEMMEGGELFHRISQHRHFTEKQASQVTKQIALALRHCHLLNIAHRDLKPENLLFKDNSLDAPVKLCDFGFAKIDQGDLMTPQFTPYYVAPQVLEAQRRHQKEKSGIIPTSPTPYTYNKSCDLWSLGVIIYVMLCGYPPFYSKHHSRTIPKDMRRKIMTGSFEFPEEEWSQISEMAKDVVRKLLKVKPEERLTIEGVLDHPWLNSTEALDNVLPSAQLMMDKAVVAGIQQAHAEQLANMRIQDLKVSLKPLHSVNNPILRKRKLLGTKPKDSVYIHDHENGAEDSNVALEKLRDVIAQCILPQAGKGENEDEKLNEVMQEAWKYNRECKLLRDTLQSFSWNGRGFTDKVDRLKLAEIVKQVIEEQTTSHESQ
T38 sequence (Q15375 28-998): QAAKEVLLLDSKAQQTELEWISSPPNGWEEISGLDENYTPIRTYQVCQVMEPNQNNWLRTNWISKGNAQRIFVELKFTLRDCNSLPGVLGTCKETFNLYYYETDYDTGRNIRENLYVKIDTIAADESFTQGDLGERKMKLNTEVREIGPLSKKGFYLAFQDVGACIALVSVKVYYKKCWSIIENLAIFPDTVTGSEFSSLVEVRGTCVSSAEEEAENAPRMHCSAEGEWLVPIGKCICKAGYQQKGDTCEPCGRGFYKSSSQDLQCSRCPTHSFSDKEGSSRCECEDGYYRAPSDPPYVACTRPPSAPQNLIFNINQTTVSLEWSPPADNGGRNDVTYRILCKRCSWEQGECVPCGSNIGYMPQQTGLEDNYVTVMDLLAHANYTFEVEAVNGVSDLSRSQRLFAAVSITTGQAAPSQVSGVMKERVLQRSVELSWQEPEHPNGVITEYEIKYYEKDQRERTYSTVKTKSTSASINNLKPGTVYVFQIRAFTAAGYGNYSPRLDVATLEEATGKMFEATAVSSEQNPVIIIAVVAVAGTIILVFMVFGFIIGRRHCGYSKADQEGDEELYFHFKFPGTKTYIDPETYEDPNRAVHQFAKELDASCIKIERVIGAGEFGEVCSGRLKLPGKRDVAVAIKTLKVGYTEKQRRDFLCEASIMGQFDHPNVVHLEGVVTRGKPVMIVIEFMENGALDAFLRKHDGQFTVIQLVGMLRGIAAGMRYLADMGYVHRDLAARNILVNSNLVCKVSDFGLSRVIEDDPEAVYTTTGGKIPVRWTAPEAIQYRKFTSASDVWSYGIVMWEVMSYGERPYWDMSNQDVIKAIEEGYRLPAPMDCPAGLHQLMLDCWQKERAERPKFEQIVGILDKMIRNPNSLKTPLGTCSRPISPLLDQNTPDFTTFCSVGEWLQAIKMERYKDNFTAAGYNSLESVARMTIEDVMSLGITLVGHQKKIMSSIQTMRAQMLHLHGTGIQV
T31 sequence (P19525 whole entry): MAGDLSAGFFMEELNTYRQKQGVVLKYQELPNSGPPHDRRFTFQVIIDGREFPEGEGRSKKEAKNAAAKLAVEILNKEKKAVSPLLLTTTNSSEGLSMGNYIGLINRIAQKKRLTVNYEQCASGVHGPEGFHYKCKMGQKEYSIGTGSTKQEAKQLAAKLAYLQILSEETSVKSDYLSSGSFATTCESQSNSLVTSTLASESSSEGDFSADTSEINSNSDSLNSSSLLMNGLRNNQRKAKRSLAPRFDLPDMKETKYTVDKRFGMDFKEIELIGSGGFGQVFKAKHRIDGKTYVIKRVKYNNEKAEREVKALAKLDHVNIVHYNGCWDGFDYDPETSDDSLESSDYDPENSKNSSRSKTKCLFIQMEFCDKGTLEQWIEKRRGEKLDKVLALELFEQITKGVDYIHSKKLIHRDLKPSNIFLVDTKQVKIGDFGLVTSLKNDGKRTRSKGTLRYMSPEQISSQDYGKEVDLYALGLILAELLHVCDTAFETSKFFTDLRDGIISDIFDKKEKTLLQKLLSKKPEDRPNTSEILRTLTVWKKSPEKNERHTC
T39 sequence (P11309 whole entry): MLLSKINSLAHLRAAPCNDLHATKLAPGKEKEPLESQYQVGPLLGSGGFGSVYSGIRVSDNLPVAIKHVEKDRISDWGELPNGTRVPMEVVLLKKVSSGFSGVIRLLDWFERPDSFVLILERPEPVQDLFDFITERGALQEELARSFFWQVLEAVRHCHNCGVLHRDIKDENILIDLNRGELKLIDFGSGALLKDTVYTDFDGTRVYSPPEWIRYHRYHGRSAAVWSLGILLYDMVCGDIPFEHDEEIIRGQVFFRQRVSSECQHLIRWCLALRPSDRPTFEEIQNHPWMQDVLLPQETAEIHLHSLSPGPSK

CC[C@H](Nc1nc(NCc2cnc(C)cc2C)c2ncn(C(C)C)c2n1)[C@@H](C)O [Fadraciclib, 2-pentanol, 3-[[6-[[(4,6-dimethyl-3-pyridinyl)methyl]amino]-9-(1-methylethyl)-9Hpurin-2-yl]amino]-, (2R,3S)]
inhibition at 1 µM [1]: 3.8%
inhibition at 1 µM [2]: -12.7 ± 0.3%
inhibition at 1 µM [3]: -16 ± 0.6%
inhibition at 1 µM [4]: 27 ± 0.9%
inhibition at 1 µM [5]: -14.5 ± 0.2%
inhibition at 1 µM [6]: -6.6 ± 0.1%
inhibition at 1 µM [7]: -38.5 ± 1%
inhibition at 1 µM [8]: 4 ± 0.1%
inhibition at 1 µM [9]: 5 ± 0.1%
inhibition at 1 µM [10]: -23.8 ± 2.7%
inhibition at 1 µM [11]: 2.2 ± 0.1%
inhibition at 1 µM [12]: 14.9 ± 1.1%
inhibition at 1 µM [13]: 3.6 ± 0.1%
inhibition at 1 µM [14]: -13.4 ± 0.6%
inhibition at 1 µM [15]: -18.7 ± 0.4%
inhibition at 1 µM [16]: -10.6 ± 0.6%
inhibition at 1 µM [17]: -13.3 ± 0.3%
inhibition at 1 µM [18]: 3.4 ± 0.1%
inhibition at 1 µM [19]: 0.2%
inhibition at 1 µM [20]: 0%
inhibition at 1 µM [21]: -1.8 ± 0.1%
inhibition at 1 µM [22]: -1.9 ± 0.1%
inhibition at 1 µM [23]: -1.2%
inhibition at 1 µM [24]: 0.9%
inhibition at 1 µM [25]: -0.8%
inhibition at 1 µM [26]: -6.5%
inhibition at 1 µM [27]: 2.9 ± 0.2%
inhibition at 1 µM [28]: -2.5%
inhibition at 1 µM [29]: -10.8 ± 0.4%
inhibition at 1 µM [30]: 15.5 ± 1.3%
inhibition at 1 µM [31]: 1.1%
inhibition at 1 µM [32]: 1.5 ± 0.1%
inhibition at 1 µM [33]: -0.2%
inhibition at 1 µM [34]: 3.6%
inhibition at 1 µM [35]: 5.8 ± 0.2%
inhibition at 1 µM [36]: -14.8 ± 0.2%
inhibition at 1 µM [37]: -10.3 ± 0.3%
inhibition at 1 µM [38]: 6 ± 0.3%
inhibition at 1 µM [39]: 7.4 ± 0.1%
inhibition at 1 µM [40]: -2.9%
inhibition at 1 µM [41]: -4.9 ± 0.4%
inhibition at 1 µM [42]: -21.7 ± 0.2%
inhibition at 1 µM [43]: -17.7 ± 0.1%
inhibition at 1 µM [44]: -14.8%
